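Where inhibition never reached the appropriate level, the endpoint shown equals the highest concentration tested. Otherwise, values were interpolated linearly from a five-concentration, 48-hour dose response in 96-well plates. At the GI50, growth is halved.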 Active and inactive are the calls of the source. Rule as the data show it: active = GI50 up to about 1.1 µM and inactive = higher.
Legend:
Experiment in all cases: inhibition of tumour cell growth, NCI panel, 48 h
OVCAR-8 = tested on: OVCAR-8
SW-620 = tested on: SW-620
OVCAR-4 = tested on: OVCAR-4
U-251 = tested on: U-251
OVCAR-3 = tested on: OVCAR-3
OVCAR-5 = tested on: OVCAR-5
UACC-257 = tested on: UACC-257
HOP-62 = tested on: HOP-62
TK-10 = tested on: TK-10
EKVX = tested on: EKVX
ACHN = tested on: ACHN
SR = tested on: SR
NCI-H522 = tested on: NCI-H522
SF-295 = tested on: SF-295
SNB-19 = tested on: SNB-19
UO-31 = tested on: UO-31
COLO 205 = tested on: COLO 205

Measured: GI50

Oc1c(-c2ccccc2)nc2ccccn12
inactive: OVCAR-8 > 100 µM | SW-620 > 100 µM | OVCAR-4 > 100 µM | U-251 > 100 µM | OVCAR-3 > 100 µM | OVCAR-5 > 100 µM | UACC-257 > 100 µM | HOP-62 > 100 µM | TK-10 > 100 µM | EKVX > 100 µM | ACHN > 100 µM | SR > 100 µM | NCI-H522 > 100 µM | SF-295 > 100 µM | SNB-19 > 100 µM | UO-31 > 100 µM

c1ccc(-c2csc3ncn4cnnc4c23)cc1
inactive: OVCAR-8 > 100 µM | SW-620 > 100 µM | OVCAR-4 75.5 µM | U-251 > 100 µM | OVCAR-3 > 100 µM | COLO 205 > 100 µM | TK-10 84.3 µM | EKVX > 100 µM | ACHN 33.6 µM | NCI-H522 51.1 µM | SF-295 > 100 µM | SNB-19 > 100 µM | UO-31 48.3 µM

CCOC(=O)N(c1ccccc1)N(CC)C(=O)/C(C)=N/Nc1ccc([N+](=O)[O-])cc1
inactive: OVCAR-8 17.4 µM | SW-620 19.3 µM | OVCAR-4 19.7 µM | U-251 15 µM | OVCAR-3 16.2 µM | COLO 205 17.2 µM | UACC-257 15 µM | HOP-62 16.1 µM | EKVX 18.6 µM | ACHN 17.7 µM | SR 21.7 µM | NCI-H522 15.3 µM | SF-295 16.6 µM | SNB-19 16.2 µM | UO-31 14.8 µM

C/C(=N\NC(N)=S)c1ccc(/C(C)=N/NC(N)=S)cc1
inactive: OVCAR-8 > 100 µM | SW-620 > 100 µM | U-251 > 100 µM | OVCAR-3 > 100 µM | OVCAR-5 > 100 µM | COLO 205 > 100 µM | UACC-257 > 100 µM | HOP-62 > 100 µM | TK-10 > 100 µM | EKVX > 100 µM | ACHN > 100 µM | SR > 100 µM | NCI-H522 > 100 µM | SF-295 > 100 µM | SNB-19 > 100 µM | UO-31 > 100 µM

Cc1cccc(NC(=O)CSc2nnc(-c3ccc(/N=C\c4ccc(Cl)cc4)cc3)o2)c1
inactive: OVCAR-8 > 100 µM | SW-620 > 100 µM | OVCAR-4 69.2 µM | U-251 > 100 µM | COLO 205 > 100 µM | UACC-257 > 100 µM | HOP-62 > 100 µM | TK-10 > 100 µM | EKVX > 100 µM | ACHN > 100 µM | SR > 100 µM | NCI-H522 38.2 µM | SF-295 > 100 µM | SNB-19 > 100 µM | UO-31 > 100 µM

Nc1nc(-c2ccc(Cl)c([N+](=O)[O-])c2)cs1
inactive: OVCAR-8 > 100 µM | SW-620 > 100 µM | OVCAR-4 > 100 µM | U-251 40.6 µM | OVCAR-3 > 100 µM | OVCAR-5 > 100 µM | COLO 205 > 100 µM | UACC-257 > 100 µM | HOP-62 > 100 µM | TK-10 > 100 µM | EKVX 94.8 µM | ACHN > 100 µM | SF-295 45.9 µM | SNB-19 68.2 µM | UO-31 78.9 µM

CCCCCCCCCCCCOC(=S)NCCCC
inactive: OVCAR-8 18.7 µM | SW-620 17.7 µM | OVCAR-4 25.8 µM | U-251 20.2 µM | OVCAR-5 19.8 µM | UACC-257 16.5 µM | HOP-62 35.6 µM | TK-10 35.3 µM | EKVX 18.3 µM | ACHN 22.4 µM | SR 19 µM | NCI-H522 14.5 µM | SF-295 36.9 µM | SNB-19 37.4 µM | UO-31 3.37 µM

O=C1O[C@@H](c2ccc3c(c2)OCO3)C2C(=O)O[C@@H](c3ccc4c(c3)OCO4)C12 (stereo partly specified)
inactive: OVCAR-8 > 100 µM | SW-620 > 100 µM | OVCAR-4 > 100 µM | U-251 > 100 µM | OVCAR-3 > 100 µM | COLO 205 > 100 µM | UACC-257 > 100 µM | HOP-62 > 100 µM | TK-10 > 100 µM | EKVX > 100 µM | ACHN > 100 µM | NCI-H522 > 100 µM | SF-295 > 100 µM | SNB-19 > 100 µM | UO-31 > 100 µM

CCOC(=O)[C@@]1(C)C=C2O[C@@H]3OC4(CCCCC4)O[C@@H]3C2=C2C(O)=CC=C(O)[C@]21C(=O)OC
inactive: OVCAR-8 > 68.1 µM | SW-620 > 68.1 µM | OVCAR-4 > 68.1 µM | U-251 > 68.1 µM | OVCAR-3 > 68.1 µM | OVCAR-5 > 68.1 µM | COLO 205 > 68.1 µM | UACC-257 > 68.1 µM | HOP-62 > 68.1 µM | TK-10 > 68.1 µM | EKVX > 68.1 µM | ACHN > 68.1 µM | NCI-H522 > 68.1 µM | SF-295 > 68.1 µM | SNB-19 > 68.1 µM | UO-31 > 68.1 µM
